From US10292985B2, “TGF beta receptor antagonists” (BRISTOL-MYERS SQUIBB COMPANY, priority 2015, dated 2019)

Molecular target: HIS-TGFβR1 T204D (Homo sapiens (Human), UniProt P36897, T204D)
Assay: HTRF probe-displacement assay, TGFβR1
Assay type: binding
Conditions: GST tagged wild type protein used instead of HIS-tagged protein (starred values)
Experimental: Em: 520 nm/495 nm). […] Compounds were dissolved at 10 mM in dimethylsulfoxide (DMSO) and evaluated at eleven concentrations. IC50 values were derived by non-linear regression analysis.

HIS-TGFβR1 T204D, sequence (P36897 34-503 T204D): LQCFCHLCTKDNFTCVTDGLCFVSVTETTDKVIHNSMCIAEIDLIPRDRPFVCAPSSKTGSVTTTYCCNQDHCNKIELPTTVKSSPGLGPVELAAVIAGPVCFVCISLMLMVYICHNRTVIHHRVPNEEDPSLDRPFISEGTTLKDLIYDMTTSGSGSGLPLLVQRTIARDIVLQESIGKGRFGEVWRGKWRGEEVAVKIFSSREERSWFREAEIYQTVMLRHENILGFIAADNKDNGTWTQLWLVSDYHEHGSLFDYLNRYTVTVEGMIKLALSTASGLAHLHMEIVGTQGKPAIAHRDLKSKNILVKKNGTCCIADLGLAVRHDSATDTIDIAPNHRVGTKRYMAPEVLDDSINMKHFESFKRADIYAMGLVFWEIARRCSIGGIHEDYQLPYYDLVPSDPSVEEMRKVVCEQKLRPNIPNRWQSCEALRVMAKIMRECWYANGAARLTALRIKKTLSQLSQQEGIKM

IC50 [nM]	Structure (SMILES)
280	Cc1cccc(-c2nc(Nc3ccnc4ccc(Br)cc34)c3cccn3n2)n1 [Example 12, 6-bromo-N-[2-(6-methylpyridin-2-yl)pyrrolo[2,1-f][1,2,4]triazin-4-yl]quinolin-4-amine]
940	Cc1cccc(-c2nc(Nc3ccnc4ccc(C(F)(F)F)cc34)c3cccn3n2)n1 [Example 16, N-[2-(6-methylpyridin-2-yl)pyrrolo[2,1-f][1,2,4]triazin-4-yl]-6-(trifluoromethyl)quinolin-4-amine]
18	Cc1ccc(F)c(-c2nc(-n3ccc4cnccc43)c3cccn3n2)n1 [Example 4, 3-fluoro-6-methyl-2-(4-{1H-pyrrolo[3,2-c]pyridin-1-yl}pyrrolo[2,1-f][1,2,4]triazin-2-yl)pyridine]
33	CS(=O)(=O)Nc1cccc(-c2nc(-n3ccc4cnccc43)c3cccn3n2)n1 [Example 25, N-[6-(4-{1H-pyrrolo[3,2-c]pyridin-1-yl}pyrrolo[2,1-f][1,2,4]triazin-2-yl)pyridin-2-yl]methanesulfonamide]

Same assay, conditions: HIS-TGFβR1 T204D, 1 nM; 1 hour at room temperature

Structure (SMILES)	IC50 [nM]
COc1cccc(-c2nc(Nc3ccc4ncccc4c3)c3cccn3n2)n1 [Example 3, N-(2-(6-methoxypyridin-2-yl)pyrrolo[2,1-f][1,2,4]triazin-4-yl)quinolin-6-amine]	13000
FC(F)(F)c1cccc(-c2nc(Nc3ccnc4cccnc34)c3cccn3n2)n1 [Example 2, N-{2-[6-(trifluoromethyl)pyridin-2-yl]pyrrolo[2,1-f][1,2,4]triazin-4-yl}-1,5-naphthyridin-4-amine]	20
COc1cccc(-c2nc(-n3ncc4cnccc43)c3cccn3n2)n1 [Example 30, 2-methoxy-6-(4-{1H-pyrazolo[4,3-c]pyridin-1-yl}pyrrolo[2,1-f][1,2,4]triazin-2-yl)pyridine]	67
COc1cccc(-c2nc(-n3ccc4cnccc43)c3cccn3n2)n1 [Example 32, 2-methoxy-6-(4-{1H-pyrrolo[3,2-c]pyridin-1-yl}pyrrolo[2,1-f][1,2,4]triazin-2-yl)pyridine]	6.2
COc1cccc(-c2nc(-n3ccc4cnccc43)c3c(Cl)ccn3n2)n1 [Example 24, 2-(5-chloro-4-{1H-pyrrolo[3,2-c]pyridin-1-yl}pyrrolo[2,1-f][1,2,4]triazin-2-yl)-6-methoxypyridine]	10
Cc1ccc(-c2nc(-n3ccc4cnccc43)c3cccn3n2)nc1 [Example 34, 5-methyl-2-(4-{1H-pyrrolo[3,2-c]pyridin-1-yl}pyrrolo[2,1-f][1,2,4]triazin-2-yl)pyridine]	12
Cc1cccc(-c2nc(Nc3ccnc4ccc(F)cc34)c3cccn3n2)n1 [Example 14, 6-fluoro-N-[2-(6-methylpyridin-2-yl)pyrrolo[2,1-f][1,2,4]triazin-4-yl]quinolin-4-amine]	6.6
c1ccc(-c2nc(-n3ccc4ccncc43)c3cccn3n2)nc1 [Example 10, 2-(4-{1H-pyrrolo[2,3-c]pyridin-1-yl}pyrrolo[2,1-f][1,2,4]triazin-2-yl)pyridine]	310
Cn1cnc2ccc(Nc3nc(-c4ccccn4)nn4cccc34)cc21 [Example 7, 1-methyl-N-[2-(pyridin-2-yl)pyrrolo[2,1-f][1,2,4]triazin-4-yl]-1H-1,3-benzodiazol-6-amine]	240
COc1ccc2nccc(Nc3nc(-c4cccc(C)n4)nn4cccc34)c2c1 [Example 11, 6-methoxy-N-[2-(6-methylpyridin-2-yl)pyrrolo[2,1-f][1,2,4]triazin-4-yl]quinolin-4-amine]	6.4

Now from value to molecule:

IC50 [nM]	Structure (SMILES)
5.8	FC(F)c1cccc(-c2nc(Nc3ccnc4cccnc34)c3cccn3n2)n1 [Example 22, N-{2-[6-(difluoromethyl)pyridin-2-yl]pyrrolo[2,1-f][1,2,4]triazin-4-yl}-1,5-napthyridin-4-amine]
5.1	c1ccc(-c2nc(-n3cnc4cnccc43)c3cccn3n2)nc1 [Example 9, 2-(4-{1H-imidazo[4,5-c]pyridin-1-yl}pyrrolo[2,1-f][1,2,4]triazin-2-yl)pyridine]
5.1	Cc1cccc(-c2nc(Nc3ccnc4cccnc34)c3cccn3n2)n1 [Example 19, N-[2-(6-methylpyridin-2-yl)pyrrolo[2,1-f][1,2,4]triazin-4-yl]-1,5-naphthyridin-4-amine]
4.7	Clc1cccc(-c2nc(-n3ccc4cnccc43)c3cccn3n2)n1 [Example 31, 2-chloro-6-(4-{1H-pyrrolo[3,2-c]pyridin-1}-ylpyrrolo[2,1-f][1,2,4]triazin-2-yl)pyridine]
4.7	Cc1cccc(-c2nc(Nc3ccnc4ccc(Cl)cc34)c3cccn3n2)n1 [Example 15, 6-chloro-N-[2-(6-methylpyridin-2-yl)pyrrolo[2,1-f][1,2,4]triazin-4-yl]quinolin-4-amine]
4.4	Cc1cccc(-c2nc(Nc3ccnc4ccncc34)c3cccn3n2)n1 [Example 18, N-[2-(6-methylpyridin-2-yl)pyrrolo[2,1-f][1,2,4]triazin-4-yl]-1,6-naphthyridin-4-amine]
4.2	COc1ccc2c(Nc3nc(-c4cccc(C(F)(F)F)n4)nn4cccc34)ccnc2c1 [Example 20, 7-methoxy-N-{2-[6-(trifluoromethyl)pyridin-2-yl]pyrrolo[2,1-f][1,2,4]triazin-4-yl}quinolin-4-amine]
3.8	FC(F)(F)c1cccc(-c2nc(-n3ccc4cnccc43)c3cccn3n2)n1 [Example 28, 2-(4-{1H-pyrrolo[3,2-c]pyridin-1-yl}pyrrolo[2,1-f][1,2,4]triazin-2-yl)-6-(trifluoromethyl)pyridine]
2.9	FC(F)c1cccc(-c2nc(-n3ccc4cnccc43)c3cccn3n2)n1 [Example 29, 2-(difluoromethyl)-6-(4-{1H-pyrrolo[3,2-c]pyridin-1-yl}pyrrolo[2,1-f][1,2,4]triazin-2-yl)pyridine]
2.2	CSc1nccc(-c2nc(-n3ccc4cnccc43)c3cccn3n2)n1 [Example 35, 2-(methylsulfanyl)-4-(4-{1H-pyrrolo[3,2-c]pyridin-1-yl}pyrrolo[2,1-f][1,2,4]triazin-2-yl)pyrimidine]
1.8	COc1ccc2c(Nc3nc(-c4cccc(C(F)F)n4)nn4cccc34)ccnc2c1 [Example 21, N-{2-[6-(difluoromethyl)pyridin-2-yl]pyrrolo[2,1-f][1,2,4]triazin-4-yl}-7-methoxyquinolin-4-amine]
1.5	Cc1cccc(-c2nc(Nc3ccc4[nH]ncc4c3)c3cccn3n2)n1 [Example 36, N-[2-(6-methylpyridin-2-yl)pyrrolo[2,1-f][1,2,4]triazin-4-yl]-1H-indazol-5-amine]
1.4	Fc1cccc(-c2nc(-n3ccc4cnccc43)c3cccn3n2)n1 [Example 6, 2-fluoro-6-(4-{1H-pyrrolo[3,2-c]pyridin-1-yl}pyrrolo[2,1-f][1,2,4]triazin-2-yl)pyridine]
1.4	Cc1cccc(-c2nc(Nc3ccnc4cc(C(F)(F)F)ccc34)c3cccn3n2)n1 [Example 17, N-[2-(6-methylpyridin-2-yl)pyrrolo[2,1-f][1,2,4]triazin-4-yl]-7-(trifluoromethyl)quinolin-4-amine]
1.3	Cc1nc(-c2nc(-n3ccc4cnccc43)c3cccn3n2)ccc1F [Example 23, 3-fluoro-2-methyl-6-(4-{1H-pyrrolo[3,2-c]pyridin-1-yl}pyrrolo[2,1-f][1,2,4]triazin-2-yl)pyridine]
1.3	c1cc(-c2nc(-n3ccc4cnccc43)c3cccn3n2)nc(C2CC2)c1 [Example 27, 2-cyclopropyl-6-(4-{1H-pyrrolo[3,2-c]pyridin-1-yl}pyrrolo[2,1-f][1,2,4]triazin-2-yl)pyridine]
1.2	CCc1cccc(-c2nc(-n3ccc4cnccc43)c3cccn3n2)n1 [Example 26, 2-ethyl-6-(4-{1H-pyrrolo[3,2-c]pyridin-1-yl}pyrrolo[2,1-f][1,2,4]triazin-2-yl)pyridine]
1.1	COc1ccc2c(Nc3nc(-c4cccc(C)n4)nn4cccc34)ccnc2c1 [Example 13, 7-methoxy-N-[2-(6-methylpyridin-2-yl)pyrrolo[2,1-f][1,2,4]triazin-4-yl]quinolin-4-amine]
1.1	c1ccc(-c2nc(-n3ccc4cnccc43)c3cccn3n2)nc1 [Example 8, 2-(4-{1H-pyrrolo[3,2-c]pyridin-1-yl}pyrrolo[2,1-f][1,2,4]triazin-2-yl)pyridine]
0.96	Cc1cccc(-c2nc(-n3ccc4cnccc43)c3cccn3n2)n1 [Example 5, 2-methyl-6-(4-{1H-pyrrolo[3,2-c]pyridin-1-yl}pyrrolo[2,1-f][1,2,4]triazin-2-yl)pyridine]
